Measured values taken from patent US7071210B2, “CETP inhibitors in combination with antihypertensive agents and uses thereof” (Pfizer Inc., priority 2002, dated 2006).

Assay: Aqueous solubility
Format: physicochemical
Conditions: aqueous environments

solubility: < 0.04 µg/mL
SMILES: CCOC(=O)N1c2ccc(C(F)(F)F)cc2[C@@H](N(Cc2cc(C(F)(F)F)cc(C(F)(F)F)c2)C(=O)OC)C[C@H]1CC [torceptrapib, [2R,4S]-4-[(3,5-bis-trifluoromethyl-benzyl)-methoxycarbonyl-amino]-2-ethyl-6-trifluoromethyl-3,4-dihydro-2H-quinoline-1-carboxylic acid ethyl ester]
